Source: US9034877B2 (Wayne State University, priority 2009, dated 2015)
Counter-ions that a name gives are not always drawn.

How the values were obtained:
[1] = target: T1, D3 receptor (Rattus norvegicus, UniProt P19020); assay: Inhibition of [3H]spiperone binding to cloned D3 receptors expressed in HEK-293 cells; details: for Ki: [3H]spiperone, rat D3 in HEK-293 cells
T1 construct: expressed in transfected cells

[2] = target: T2, hD3 receptor (Homo sapiens, UniProt P35462); assay: Stimulation of [35S]GTPγS binding, hD3 receptor expressed in CHO cells; format: biochemical
T2 construct: expressed in transfected cells; host or cells: CHO
T2 sequence (P35462 whole entry): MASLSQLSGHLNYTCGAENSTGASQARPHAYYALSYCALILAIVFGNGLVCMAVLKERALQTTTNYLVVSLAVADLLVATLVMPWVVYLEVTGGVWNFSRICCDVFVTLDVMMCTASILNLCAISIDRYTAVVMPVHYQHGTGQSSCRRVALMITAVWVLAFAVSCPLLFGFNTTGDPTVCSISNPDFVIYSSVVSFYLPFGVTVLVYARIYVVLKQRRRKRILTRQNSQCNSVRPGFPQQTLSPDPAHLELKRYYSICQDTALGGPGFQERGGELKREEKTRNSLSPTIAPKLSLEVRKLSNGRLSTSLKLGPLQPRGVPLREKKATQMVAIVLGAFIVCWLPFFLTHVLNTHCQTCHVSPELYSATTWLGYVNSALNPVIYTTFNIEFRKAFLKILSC

[3] = target: T3, D2L receptor (Rattus norvegicus, UniProt P61169); assay: Inhibition of [3H]spiperone binding to cloned D2L receptors expressed in HEK-293 cells; details: rat D2L in HEK-293 cells, read-out: Ki, D2 receptor
T3 construct: expressed in transfected cells
T3 sequence (P61169 whole entry): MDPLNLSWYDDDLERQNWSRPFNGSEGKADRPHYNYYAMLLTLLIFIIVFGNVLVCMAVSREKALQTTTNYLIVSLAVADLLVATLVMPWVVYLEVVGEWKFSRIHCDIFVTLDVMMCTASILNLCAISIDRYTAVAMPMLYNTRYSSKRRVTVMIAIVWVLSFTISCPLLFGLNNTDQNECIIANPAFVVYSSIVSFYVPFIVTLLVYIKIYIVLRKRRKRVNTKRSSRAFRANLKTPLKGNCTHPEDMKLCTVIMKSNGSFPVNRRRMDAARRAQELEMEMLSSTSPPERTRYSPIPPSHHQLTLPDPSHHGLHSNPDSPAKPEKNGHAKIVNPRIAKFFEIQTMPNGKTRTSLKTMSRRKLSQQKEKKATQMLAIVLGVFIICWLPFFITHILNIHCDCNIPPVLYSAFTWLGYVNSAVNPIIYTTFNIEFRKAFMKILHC

[4] = test system: 6-OHDA lesioned rats; assay: Rotational experiment with 6-OHDA unilaterally lesioned rats; format: in vivo, rat; details: 0.05 mg/kg, 21 days post lesion, recorded for 30 min

T1 sequence (P19020 whole entry): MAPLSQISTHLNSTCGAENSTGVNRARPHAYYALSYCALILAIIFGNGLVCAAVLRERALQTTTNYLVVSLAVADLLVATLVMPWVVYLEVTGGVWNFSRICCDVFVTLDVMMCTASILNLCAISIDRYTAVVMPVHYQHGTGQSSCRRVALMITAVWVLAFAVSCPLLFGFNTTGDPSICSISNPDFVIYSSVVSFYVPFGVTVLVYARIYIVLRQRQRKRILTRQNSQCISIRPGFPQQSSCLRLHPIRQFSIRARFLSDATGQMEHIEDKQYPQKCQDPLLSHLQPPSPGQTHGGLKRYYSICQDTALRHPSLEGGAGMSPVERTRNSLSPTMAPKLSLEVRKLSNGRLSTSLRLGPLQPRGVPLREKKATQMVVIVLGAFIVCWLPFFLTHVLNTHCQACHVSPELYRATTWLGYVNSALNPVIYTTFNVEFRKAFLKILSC

melting point [°C] | Ki [1] [nM] | Ki [3] [nM] | Compound | other results
203 to 205 |  |  | CCCN(CCN1CCN(C(=O)c2cc3ccccc3[nH]2)CC1)C1CCc2ccc(O)cc2C1 (stereo not drawn) (as salt: HCl) [Compound 40c, (4-{2-[(7-Hydroxy-1,2,3,4-tetrahydro-naphthalen-2-yl)-propyl-amino]-ethyl}-piperazin-1-yl)-(1H-indol-2-yl)-methanone] | 
147 to 151 |  |  | CCCN(CCN1CCN(C(=O)c2c[nH]c3ccccc23)CC1)C1CCc2c(O)cccc2C1 (stereo not drawn) (as salt: HCl) [Compound 40f, (4-{2-[(5-Hydroxy-1,2,3,4-tetrahydro-naphthalen-2-yl)-propyl-amino]-ethyl}-piperazin-1-yl)-(1H-indol-3-yl)-methanone] | 
167 to 170 |  |  | CCCN(CCN1CCN(C(=O)c2n[nH]c3ccccc23)CC1)C1CCc2c(O)cccc2C1 (stereo not drawn) (as salt: HCl) [Compound 40g, (4-{2-[(5-Hydroxy-1,2,3,4-tetrahydro-naphthalen-2-yl)-propyl-amino]-ethyl}-piperazin-1-yl)-(1H-indazol-3-yl)-methanone] | 
131 to 134 |  |  | CCCN(CCN1CCN(C(=O)c2cc3ccccc3s2)CC1)C1CCc2c(O)cccc2C1 (stereo not drawn) (as salt: HCl) [Compound 40i, Benzo[b]thiophen-2-yl-(4-{2-[(5-hydroxy-1,2,3,4-tetrahydro-naphthalen-2-yl)-propyl-amino]-ethyl}-piperazin-1-yl)-methanone] | 
142 to 146 |  |  | CCCN(CCN1CCN(C(=O)c2cnc3ccccc3c2)CC1)C1CCc2c(O)cccc2C1 (stereo not drawn) (as salt: HCl) [Compound 40j, (4-{2-[(5-Hydroxy-1,2,3,4-tetrahydro-naphthalen-2-yl)-propyl-amino]-ethyl}-piperazin-1-yl)-quinolin-3-yl-methanone] | 
252 to 255 |  |  | CCCN(CCN1CCN(Cc2ccc(O)c3ncccc23)CC1)C1CCc2c(O)cccc2C1 (stereo not drawn) (as salt: hydrochloride) [Compound 12b, 5-((4-(2-((5-hydroxy-1,2,3,4-tetrahydronaphthalen-2-yl)(propyl)amino)ethyl)piperazin-1-yl)methyl)quinolin-8-ol] | 
198 to 203 |  |  | CCCN(CCN1CCN(Cc2ccc3[nH]ccc3c2)CC1)C1CCc2ccc(O)cc2C1 (stereo not drawn) (as salt: oxalate) [Compound 40b, 7-({2-[4-(1H-Indol-5-ylmethyl)-piperazin-1-yl]-ethyl}-propyl-amino)-5,6,7,8-tetrahydro-naphthalen-2-ol] | 
135 to 137 |  |  | CCCN(CCN1CCN(Cc2cc3ccccc3[nH]2)CC1)C1CCc2ccc(O)cc2C1 (stereo not drawn) (as salt: oxalate) [Compound 40d, 7-({2-[4-(1H-Indol-2-ylmethyl)-piperazin-1-yl]-ethyl}-propyl-amino)-5,6,7,8-tetrahydro-naphthalen-2-ol] | 
179 to 183 |  |  | CCCN(CCN1CCN(c2ccc3[nH]ccc3c2)CC1)C1CCc2ccc(O)cc2C1 (stereo not drawn) (as salt: oxalate) [Compound 52, 7-((2-(4-(1H-indol-5-yl)piperazin-1-yl)ethyl)(propyl)amino)-5,6,7,8-tetrahydro-naphthalen-2-ol] | 
 | 0.55 |  | CCCN(CCN1CCN(C(=O)c2cc3ccccc3[nH]2)CC1)C1CCc2c(O)cccc2C1 (racemic) [Compound 40e, (4-{2-[(5-Hydroxy-1,2,3,4-tetrahydro-naphthalen-2-yl)-propyl-amino]-ethyl}-piperazin-1-yl)-(1H-indol-2-yl)-methanone] | 
169 to 170 |  |  | CCCN(CCN1CCN(C(=O)c2cc3ccccc3[nH]2)CC1)C1CCc2c(O)cccc2C1 (single isomer, unassigned; (+)) (as salt: HCl) [Compound (+)-40e, (+)-(4-{2-[(5-Hydroxy-1,2,3,4-tetrahydro-naphthalen-2-yl)-propyl-amino]-ethyl}-piperazin-1-yl)-(1H-indol-2-yl)-methanone] | 
230 to 232 |  |  | CCCN(CCN1CCN(c2ccnc3c(O)cccc23)CC1)C1CCc2c(O)cccc2C1 (single isomer, unassigned; (+)) (as salt: hydrochloride) [(+)19b, (+)-4-(4-(2-((5-hydroxy-1,2,3,4-tetrahydronaphthalen-2-yl) (propyl)amino)ethyl)piperazin-1-yl)quinolin-8-ol] | 
 |  |  | CCCN(CCN1CCN(c2ccnc3c(O)cccc23)CC1)C1CCc2ccc(O)cc2C1 (single isomer, unassigned; (+)) [(+)19a, (+)-4-(4-(2-((7-hydroxy-1,2,3,4-tetrahydronaphthalen-2-yl) (propyl)amino)ethyl)piperazin-1-yl)quinolin-8-ol] | Agonism at D3 compared with dopamine [2]: full or near-complete agonism
168 to 169 |  |  | CCCN(CCN1CCN(C(=O)c2cc3ccccc3[nH]2)CC1)C1CCc2c(O)cccc2C1 (single isomer, unassigned; (-)) (as salt: HCl) [Compound (−)-40e, (−)-(4-{2-[(5-Hydroxy-1,2,3,4-tetrahydro-naphthalen-2-yl)-propyl-amino]-ethyl}-piperazin-1-yl)-(1H-indol-2-yl)-methanone] | 
237 to 240 |  |  | CCCN(CCN1CCN(c2ccnc3c(O)cccc23)CC1)C1CCc2c(O)cccc2C1 (single isomer, unassigned; (-)) (as salt: hydrochloride) [Compound (−)19b, (−)-4-(4-(2-((5-hydroxy-1,2,3,4-tetrahydronaphthalen-2-yl) (propyl)amino)ethyl)piperazin-1-yl)quinolin-8-ol] | 
 | 5.57 | 86 | CCCN(CCN1CCN(Cc2ccc(O)c3ncccc23)CC1)C1CCc2ccc(O)cc2C1 (stereo not drawn) [Compound 12a, 5-((4-(2-((7-hydroxy-1,2,3,4-tetrahydronaphthalen-2-yl)(propyl)amino)ethyl)piperazin-1-yl)methyl) quinolin-8-ol] | 
 | 3.71 |  | CCCN(CCN1CCN(Cc2ccc(O)c3ncccc23)CC1)C1CCc2c(O)cccc2C1 (stereo not drawn) [Compound 12b, 5-((4-(2-((5-hydroxy-1,2,3,4-tetrahydronaphthalen-2-yl)(propyl)amino)ethyl)piperazin-1-yl)methyl)quinolin-8-ol] | 
 | 1.35 |  | CCCN(CCN1CCN(c2ccnc3c(O)cccc23)CC1)C1CCc2c(O)cccc2C1 (stereo not drawn) [Compound 19b] | 
 | 3.87 | 144 | CCCN(CCN1CCN(Cc2ccc3[nH]ccc3c2)CC1)C1CCc2ccc(O)cc2C1 (stereo not drawn) [Compound 40b, 7-({2-[4-(1H-Indol-5-ylmethyl)-piperazin-1-yl]-ethyl}-propyl-amino)-5,6,7,8-tetrahydro-naphthalen-2-ol] | 
 | 3.72 | 116 | CCCN(CCN1CCN(C(=O)c2cc3ccccc3[nH]2)CC1)C1CCc2ccc(O)cc2C1 (stereo not drawn) [Compound 40c, (4-{2-[(7-Hydroxy-1,2,3,4-tetrahydro-naphthalen-2-yl)-propyl-amino]-ethyl}-piperazin-1-yl)-(1H-indol-2-yl)-methanone] | D2/D3 (Ki ratio, binding selectivity) ([1]; Ki D2 / Ki D3): 31
 | 3.62 | 58.9 | CCCN(CCN1CCN(C(=O)c2c[nH]c3ccccc23)CC1)C1CCc2c(O)cccc2C1 (stereo not drawn) [Compound 40f, (4-{2-[(5-Hydroxy-1,2,3,4-tetrahydro-naphthalen-2-yl)-propyl-amino]-ethyl}-piperazin-1-yl)-(1H-indol-3-yl)-methanone] | 
 | 2.83 | 28 | CCCN(CCN1CCN(C(=O)c2n[nH]c3ccccc23)CC1)C1CCc2c(O)cccc2C1 (stereo not drawn) [Compound 40g, (4-{2-[(5-Hydroxy-1,2,3,4-tetrahydro-naphthalen-2-yl)-propyl-amino]-ethyl}-piperazin-1-yl)-(1H-indazol-3-yl)-methanone] | 
 | 1.69 | 76.9 | CCCN(CCN1CCN(C(=O)c2cc3ccccc3s2)CC1)C1CCc2c(O)cccc2C1 (stereo not drawn) [Compound 40i, Benzo[b]thiophen-2-yl-(4-{2-[(5-hydroxy-1,2,3,4-tetrahydro-naphthalen-2-yl)-propyl-amino]-ethyl}-piperazin-1-yl)-methanone] | 
 |  | 158 | CCCN(CCN1CCN(C(=O)c2cnc3ccccc3c2)CC1)C1CCc2c(O)cccc2C1 (stereo not drawn) [Compound 40j, (4-{2-[(5-Hydroxy-1,2,3,4-tetrahydro-naphthalen-2-yl)-propyl-amino]-ethyl}-piperazin-1-yl)-quinolin-3-yl-methanone] | 
 | 2 | 30 | CCCN(CCN1CCN(c2ccc3[nH]ccc3c2)CC1)C1CCc2ccc(O)cc2C1 (stereo not drawn) [Compound 52, 7-((2-(4-(1H-indol-5-yl)piperazin-1-yl)ethyl)(propyl)amino)-5,6,7,8-tetrahydro-naphthalen-2-ol] | 
 | 2.27 | 157 | CCCN(CCN1CCN(C(=O)c2ccc3[nH]ccc3c2)CC1)[C@H]1CCc2c(O)cccc2C1 [Compound (−)-45, (S)-(4-{2-[(5-Hydroxy-1,2,3,4-tetrahydro-naphthalen-2-yl)-propyl-amino]-ethyl}-piperazin-1-yl)-(1H-indol-5-yl)-methanone] | 
 |  |  | CN1CCc2cccc3c2[C@H]1Cc1ccc(O)c(O)c1-3 [apomorphine] | Average contralateral rotation [4]: > 250
